In patent US9834526B2 (MERCK SHARP & DOHME CORP., priority 2013, dated 2017):

The compounds below were run against T1, wildtype HIV-1 protease (Human immunodeficiency virus type 1 group M subtype B, UniProt P04585) (assay: Inhibition of microbial expressed HIV protease (Pepcleav)). Conditions: wild type HIV-1 protease expressed in E. coli, 20 pM enzyme, 400 micromolar peptide substrate, pH 5.5, LC-MS readout; mean of at least two independent experiments.
T1 construct: preincubated with the HIV-1 protease (wild type) enzyme in assay buffer; made in house; host or cells: Escherichia coli
Format: biochemical
Procedure: Assay for Inhibition of Microbial Expressed HIV Protease (“Pepcleav”)
Studies of the inhibition of the wildtype HIV-1 protease (which was expressed in Escherichia coli) were carried out with a peptide substrate [Val-Ser-Gln-Asn-(βnaphthyl)Ala-Pro-Ile-Val (SEQ ID NO:1)]. The inhibitor was first preincubated with the HIV-1 protease (wild type) enzyme in assay buffer (50 mM sodium acetate, pH 5.5, 100 mM NaCl, and 0.1% BSA) for 30 minutes at room temperature. Substrate was added to 400 micromolar in a total volume of 20 microliters containing 20 picomolar HIV-1 protease (final) and the reaction was incubated for 1 hour at 30° C. The reaction was quenched with the addition of formic acid and indinavir to 0.012% and 150 nM final concentrations, respectively. The product formation was determined after separation of product and substrate on a Zorbax Eclipse XDB-C18 column connected to an API 4000 mass spectrometer (Applied Biosystems) with multiple reaction monitoring (transitions were 644.5/428.9 and 615.4/422.2 (M1/M3) for product and indinavir respectively). The extent of inhibition of the reaction was determined from the peak area of the products. Analysis of the products, independently synthesized, provided quantitation standards and confirmation of the product composition.

Structure (SMILES) | IC50 [nM]
C[C@@H]1O[C@H](CCc2c(F)cccc2NC(=O)[C@@H](N)C(c2ccc(F)cc2)c2ccc(F)cc2)CN[C@@H]1COC(=O)NCC(F)(F)F [Example 50, 4-fluoro-N-(3-fluoro-2-{2-[(2R,5R,6S)-6-methyl-5-({[(2,2,2-trifluoroethyl)carbamoyl]oxy}methyl)morpholin-2-yl]ethyl}phenyl)-β-(4-fluorophenyl)-L-phenylalaninamide] | 30
C[C@H]1O[C@H](CCc2c(F)cncc2NC(=O)[C@@H](N)C(c2ccc(F)cc2)c2ccc(F)cc2)CN[C@@H]1COC(=O)NCC(F)(F)F [Example 45, 4-fluoro-N-(5-fluoro-4-{2-[(2R,5R,6R)-6-methyl-5-({[(2,2,2-trifluoroethyl)carbamoyl]oxy}methyl)morpholin-2-yl]ethyl}pyridin-3-yl)-β-(4-fluorophenyl)-L-phenylalaninamide] | 24
COC(=O)N[C@H](C(=O)Nc1ccccc1CC[C@@H]1CN[C@H](C)[C@@H](CSc2cccc3ncccc23)O1)C(c1ccccc1)c1ccccc1 [Example 4, methyl [(2S)-1-{[2-(2-{(2R,5R,6S)-5-methyl-6-[(quinolin-5-ylsulfanyl)methyl]morpholin-2-yl}ethyl)phenyl]amino}-1-oxo-3,3-diphenylpropan-2-yl]carbamate] | 10.6
C[C@@H]1O[C@H](CCc2c(F)cccc2NC(=O)[C@@H](N)C(c2ccc(F)cc2)c2ccc(F)cc2)CN[C@@H]1COC(=O)N[C@@H](C)C(F)(F)F [Example 37, 4-fluoro-N-[3-fluoro-2-(2-{(2R,5R,6S)-6-methyl-5-[({[(1S)-2,2,2-trifluoro-1-methylethyl]carbamoyl}oxy)methyl]morpholin-2-yl}ethyl)phenyl]-β-(4-fluorophenyl)-L-phenylalaninamide] | 3.1
COC(=O)N[C@H](C(=O)Nc1ccccc1CC[C@@H]1CN[C@H](C)[C@@H](CSc2nnc(CN3CCCC3)o2)O1)C(c1ccccc1)c1ccccc1 [Example 26, methyl N-[(1S)-1-benzhydryl-2-[[2-[2-[(2R,5R,6S)-5-methyl-6-[[5-(pyrrolidin-1-ylmethyl)-1,3,4-oxadiazol-2-yl]sulfanylmethyl]morpholin-2-yl]ethyl]phenyl]amino]-2-oxo-ethyl]carbamate] | 124
COC(=O)N[C@H](C(=O)Nc1ccccc1CC[C@@H]1CN[C@H](C)[C@@H](CSc2ccc(Cl)cc2)O1)C(c1ccccc1)c1ccccc1 [Example 1, N-(2-{2-[(2R,5R,6S)-6-{[(4-chlorophenyl)sulfanyl]methyl}-5-methylmorpholin-2-yl]ethyl}phenyl)-Nα-(methoxycarbonyl)-β-phenyl-L-phenylalaninamide] | 17.5
COC(=O)N[C@H](C(=O)Nc1ccccc1CC[C@@H]1CN[C@H](C)[C@@H](C[S@@+]([O-])c2ccc(Cl)cc2)O1)C(c1ccccc1)c1ccccc1 [Example 41, N-(2-{2-[(2R,5R,6S)-6-{[(R)-(4-chlorophenyl)sulfinyl]methyl}-5-methylmorpholin-2-yl]ethyl}phenyl)-Nα-(methoxycarbonyl)-β-phenyl-L-phenylalaninamide] | 890
CC(C)[C@@H](NC(=O)OC[C@H]1NC[C@@H](CCc2c(F)cccc2NC(=O)[C@@H](N)C(c2ccc(F)cc2)c2ccc(F)cc2)O[C@H]1C)c1ccc(F)cc1 [Example 58, 4-fluoro-N-[3-fluoro-2-(2-{(2R,5R,6S)-5-[({[(1R)-1-(4-fluorophenyl)-2-methylpropyl]carbamoyl}oxy)methyl]-6-methylmorpholin-2-yl}ethyl)phenyl]-β-(4-fluorophenyl)-L-phenylalaninamide] | 6.9
C[C@H]1O[C@H](COc2c(F)cncc2NC(=O)[C@@H](N)C(c2ccc(F)cc2)c2ccc(F)cc2)CN[C@@H]1COC(=O)NCC(F)(F)F [Example 51, 4-fluoro-N-(5-fluoro-4-{[(2S,5R,6R)-6-methyl-5-({[(2,2,2-trifluoroethyl)carbamoyl]oxy}methyl)morpholin-2-yl]methoxy}pyridin-3-yl)-β-(4-fluorophenyl)-L-phenylalaninamide] | 77
COC(=O)N[C@H](C(=O)Nc1ccccc1CC[C@@H]1CN[C@H](C)[C@@H](CSc2nc[nH]n2)O1)C(c1ccccc1)c1ccccc1 [Example 24, methyl N-[(1S)-1-benzhydryl-2-[[2-[2-[(2R,5R,6S)-5-methyl-6-(1H-1,2,4-triazol-3-ylsulfanylmethyl)morpholin-2-yl]ethyl]phenyl]amino]-2-oxo-ethyl]carbamate] | 58.3
COC(=O)N[C@H](C(=O)Nc1ccccc1CC[C@@H]1CN[C@H](COCc2ccccc2)[C@@H](CSc2nnc(-c3ccncc3)o2)O1)C(c1ccccc1)c1ccccc1 [Example 33] | 0.472
COC(=O)N[C@H](C(=O)Nc1ccccc1CC[C@@H]1CN[C@H](COC(C)=O)[C@@H](CSc2nnc(-c3ccncc3)o2)O1)C(c1ccccc1)c1ccccc1 [Example 30, [(2S,3R,6R)-6-[2-(2-{[N-(methoxycarbonyl)-β-phenyl-L-phenylalanyl]amino}phenyl)ethyl]-2-({[5-(pyridin-4-yl)-1,3,4-oxadiazol-2-yl]sulfanyl}methyl)morpholin-3-yl]methyl acetate] | 0.0334
COC(=O)N[C@H](C(=O)Nc1ccccc1CC[C@@H]1CN[C@H](C)[C@@H](CSc2ncnc3c2cnn3C)O1)C(c1ccccc1)c1ccccc1 [Example 11, methyl N-[(1S)-1-benzhydryl-2-[[2-[2-[(2R,5R,6S)-5-methyl-6-[(1-methylpyrazolo[3,4-d]pyrimidin-4-yl)sulfanylmethyl]morpholin-2-yl]ethyl]phenyl]amino]-2-oxo-ethyl]carbamate] | 11.7
COC(=O)N[C@H](C(=O)Nc1ccccc1CC[C@@H]1CN[C@H](C)[C@@H](CSc2nc(C)cc(C(F)(F)F)n2)O1)C(c1ccccc1)c1ccccc1 [Example 18, methyl N-[(1S)-1-benzhydryl-2-[[2-[2-[(2R,5R,6S)-5-methyl-6-[[4-methyl-6-(trifluoromethyl)pyrimidin-2-yl]sulfanylmethyl]morpholin-2-yl]ethyl]phenyl]amino]-2-oxo-ethyl]carbamate] | 34.9
COC(=O)N[C@H](C(=O)Nc1ccccc1CC[C@@H]1CN[C@H](C)[C@@H](CSc2nncs2)O1)C(c1ccccc1)c1ccccc1 [Example 13, methyl N-[(1S)-1-benzhydryl-2-[[2-[2-[(2R,5R,6S)-5-methyl-6-(1,3,4-thiadiazol-2-ylsulfanylmethyl)morpholin-2-yl]ethyl]phenyl]amino]-2-oxo-ethyl]carbamate] | 12.5
C[C@@H]1O[C@H](CCc2c(F)cccc2NC(=O)[C@@H](N)C(c2ccc(F)cc2)c2ccc(F)cc2)CN[C@@H]1CO [Example 49, 4-fluoro-N-(3-fluoro-2-{2-[(2R,5R,6S)-5-(hydroxymethyl)-6-methylmorpholin-2-yl]ethyl}phenyl)-β-(4-fluorophenyl)-L-phenylalaninamide] | 400
C[C@@H]1O[C@H](CCc2c(F)cccc2NC(=O)[C@@H](N)C(c2ccc(F)cc2)c2ccc(F)cc2)CN[C@@H]1COC(N)=O [Example 36, N-[2-(2-{(2R,5R,6S)-5-[(carbamoyloxy)methyl]-6-methylmorpholin-2-yl}ethyl)-3-fluorophenyl]-4-fluoro-β-(4-fluorophenyl)-L-phenylalaninamide] | 39
COC(=O)N[C@H](C(=O)Nc1ccccc1CC[C@@H]1CN[C@H](C)[C@@H](CSc2ccncc2)O1)C(c1ccccc1)c1ccccc1 [Example 19, methyl N-[(1S)-1-benzhydryl-2-[[2-[2-[(2R,5R,6S)-5-methyl-6-(4-pyridylsulfanylmethyl)morpholin-2-yl]ethyl]phenyl]amino]-2-oxo-ethyl]carbamate] | 41.4
COC(=O)N[C@H](C(=O)Nc1ccccc1CC[C@@H]1CN[C@H](C)[C@@H](CSc2nc(C(F)(F)F)nc3ccccc23)O1)C(c1ccccc1)c1ccccc1 [Example 14, methyl N-[(1S)-1-benzhydryl-2-[[2-[2-[(2R,5R,6S)-5-methyl-6-[[2-(trifluoromethyl)quinazolin-4-yl]sulfanylmethyl]morpholin-2-yl]ethyl]phenyl]amino]-2-oxo-ethyl]carbamate] | 14.2
COC(=O)N[C@H](C(=O)Nc1ccccc1CC[C@@H]1CN[C@H](C)[C@@H](CSc2nnc(Cc3csc(C)n3)o2)O1)C(c1ccccc1)c1ccccc1 [Example 7, methyl N-[(1S)-1-benzhydryl-2-[[2-[2-[(2R,5R,6S)-5-methyl-6-[[5-[(2-methylthiazol-4-yl)methyl]-1,3,4-oxadiazol-2-yl]sulfanylmethyl]morpholin-2-yl]ethyl]phenyl]amino]-2-oxo-ethyl]carbamate] | 7.95
COC(=O)N[C@H](C(=O)Nc1ccccc1CC[C@@H]1CN[C@H](C)[C@@H](CSc2nc(N)c3cn[nH]c3n2)O1)C(c1ccccc1)c1ccccc1 [Example 25, methyl N-[(1S)-1-[[2-[2-[(2R,5R,6S)-6-[(4-amino-1H-pyrazolo[3,4-d]pyrimidin-6-yl)sulfanylmethyl]-5-methyl-morpholin-2-yl]ethyl]phenyl]carbamoyl]-2,2-diphenyl-ethyl]carbamate] | 100
